# Laboratory results taken from article PMC12655527, “An Investigational Study on the Role of ADME Agents’ Genetic Variation on DD217 Pharmacokinetics and Safety Profile” (Pharmaceuticals, 2025).
# Several values for one entry are separate records, joined by “and”; a condition that tells them apart may be missing. Identical values can stand only once. Like-named read-outs stand apart in the source and are kept apart here.
# Experiment: Pharmacokinetic parameters (Tmax, AUClast, Cmax) of DD217 in phase II trial patients
# Type: in vivo, human (patients undergoing knee replacement surgery)
# Parameters: AUClast (area under the concentration-time curve up to the last measurable point) / Cmax (maximum plasma concentration): unit not given here
# Details: for AUC(0-t) / Cmax / Tmax: human, plasma, oral; for AUClast (area under the concentration-time curve up to the last measurable point) / Cmax (maximum plasma concentration) / Tmax (time to maximum plasma concentration): individual patients
# Description: The design, eligibility criteria, and outcomes of the phase II clinical trial evaluating the safety and tolerability of DD217 (NCT05189002, ClinicalTrials.gov) have been described previously. Briefly, this was a multicenter, double-blind, randomized, prospective phase II study designed to determine the optimal dosing regimen and to assess the safety and efficacy of DD217 for the prevention of venous thromboembolism (VTE) in patients undergoing knee replacement surgery. Patients were randomized into one of three groups: two groups received oral DD217 at doses of 40 mg or 60 mg once daily, starting on the morning of the first postoperative day, and one group received the active comparator, dalteparin sodium. The treatment duration was 14 days.
# In total, data from 52 patients who underwent knee replacement surgery were included in the analysis. Of these, 34 patients received DD217 at daily doses of 40 mg (n = 16) or 60 mg (n = 18), and 18 patients received dalteparin sodium.
# To characterize the pharmacokinetic profile of DD217 in our study, three parameters were assessed: Cmax, Tmax, and AUClast.
smiles,measurement,setting,value
"CC(=N)N(C)c1ccc(C(=O)Nc2ccc(C)cc2C(=O)Nc2ccc(Cl)cn2)cc1.Cl [DD217, N-(5-chloropyridin-2-yl)-5-methyl-2-[4-(N-methylacetimidamido)benzamido]benzamide hydrochloride]",AUC(0-t),"40 mg, CYP2C19 *1/*17, *17/*17, RM + UM (n = 9), mean ± SD, read-out: AUClast",47.7 ± 42.6 ng·h/mL
same,Cmax,"40 mg, CYP2C19 *1/*17, *17/*17, RM + UM (n = 9), mean ± SD, read-out: Cmax",5.8 ± 6.73 ng/mL
same,Tmax,"40 mg, CYP2C19 *1/*17, *17/*17, RM + UM (n = 9), mean ± SD, read-out: Tmax",7.67 ± 6.71 h
same,AUC(0-t),"40 mg, CYP3A *1/*1, EM (n = 12), mean ± SD, read-out: AUClast",40 ± 42.1 ng·h/mL
same,Cmax,"40 mg, CYP3A *1/*1, EM (n = 12), mean ± SD, read-out: Cmax",5.02 ± 6.92 ng/mL
same,Tmax,"40 mg, CYP3A *1/*1, EM (n = 12), mean ± SD, read-out: Tmax",11.8 ± 9.5 h
same,AUC(0-t),"60 mg/day, ABCB1 rs1045642 C/C (n 3), read-out: AUClast (SD)",197 ng·h/mL
same,Cmax,"60 mg/day, ABCB1 rs1045642 C/C (n 3), read-out: Cmax (SD)",15.9 ng/mL
same,Tmax,"60 mg/day, ABCB1 rs1045642 C/C (n 3), read-out: Tmax (SD)",2 h
same,AUC(0-t),"60 mg/day, ABCB1 rs1045642 T/C (n 8), read-out: AUClast (SD)",53.9 ng·h/mL
same,Cmax,"60 mg/day, ABCB1 rs1045642 T/C (n 8), read-out: Cmax (SD)",5.54 ng/mL
same,Tmax,"60 mg/day, ABCB1 rs1045642 T/C (n 8), read-out: Tmax (SD)",7.75 h
same,AUC(0-t),"60 mg/day, ABCB1 rs1045642 T/T (n 7), read-out: AUClast (SD)",27.6 ng·h/mL
same,Cmax,"60 mg/day, ABCB1 rs1045642 T/T (n 7), read-out: Cmax (SD)",2.42 ng/mL
same,Tmax,"60 mg/day, ABCB1 rs1045642 T/T (n 7), read-out: Tmax (SD)",13.6 h
same,AUC(0-t),"60 mg/day, ABCB1 rs1128503 C/C (n 4), read-out: AUClast (SD)",164 ng·h/mL
same,Cmax,"60 mg/day, ABCB1 rs1128503 C/C (n 4), read-out: Cmax (SD)",14.1 ng/mL
same,Tmax,"60 mg/day, ABCB1 rs1128503 C/C (n 4), read-out: Tmax (SD)",2 h
same,AUC(0-t),"60 mg/day, ABCB1 rs1128503 T/C (n 10), read-out: AUClast (SD)",50.5 ng·h/mL
same,Cmax,"60 mg/day, ABCB1 rs1128503 T/C (n 10), read-out: Cmax (SD)",4.66 ng/mL
same,Tmax,"60 mg/day, ABCB1 rs1128503 T/C (n 10), read-out: Tmax (SD)",9 h
same,AUC(0-t),"60 mg/day, ABCB1 rs1128503 T/T (n 4), read-out: AUClast (SD)",14 ng·h/mL
same,Cmax,"60 mg/day, ABCB1 rs1128503 T/T (n 4), read-out: Cmax (SD)",1.49 ng/mL
same,Tmax,"60 mg/day, ABCB1 rs1128503 T/T (n 4), read-out: Tmax (SD)",16.2 h
same,AUC(0-t),"60 mg/day, ABCB1 rs2032582 G/G (n 4), read-out: AUClast (SD)",164 ng·h/mL
same,Cmax,"60 mg/day, ABCB1 rs2032582 G/G (n 4), read-out: Cmax (SD)",14.1 ng/mL
same,Tmax,"60 mg/day, ABCB1 rs2032582 G/G (n 4), read-out: Tmax (SD)",2 h
same,AUC(0-t),"60 mg/day, ABCB1 rs2032582 T/G (n 9), read-out: AUClast (SD)",51.6 ng·h/mL
same,Cmax,"60 mg/day, ABCB1 rs2032582 T/G (n 9), read-out: Cmax (SD)",4.87 ng/mL
same,Tmax,"60 mg/day, ABCB1 rs2032582 T/G (n 9), read-out: Tmax (SD)",9.56 h
same,AUC(0-t),"60 mg/day, ABCB1 rs2032582 T/T (n 5), read-out: AUClast (SD)",19.4 ng·h/mL
same,Cmax,"60 mg/day, ABCB1 rs2032582 T/T (n 5), read-out: Cmax (SD)",1.74 ng/mL
same,Tmax,"60 mg/day, ABCB1 rs2032582 T/T (n 5), read-out: Tmax (SD)",13.8 h
same,AUC(0-t),"60 mg/day, ABCB1 rs4148738 C/C (n 5), read-out: AUClast (SD)",18.9 ng·h/mL
same,Cmax,"60 mg/day, ABCB1 rs4148738 C/C (n 5), read-out: Cmax (SD)",1.78 ng/mL
same,Tmax,"60 mg/day, ABCB1 rs4148738 C/C (n 5), read-out: Tmax (SD)",10.6 h
same,AUC(0-t),"60 mg/day, ABCB1 rs4148738 C/T (n 9), read-out: AUClast (SD)",51.9 ng·h/mL
same,Cmax,"60 mg/day, ABCB1 rs4148738 C/T (n 9), read-out: Cmax (SD)",4.85 ng/mL
same,Tmax,"60 mg/day, ABCB1 rs4148738 C/T (n 9), read-out: Tmax (SD)",11.3 h
same,AUC(0-t),"60 mg/day, ABCB1 rs4148738 T/T (n 4), read-out: AUClast (SD)",164 ng·h/mL
same,Cmax,"60 mg/day, ABCB1 rs4148738 T/T (n 4), read-out: Cmax (SD)",14.1 ng/mL
same,Tmax,"60 mg/day, ABCB1 rs4148738 T/T (n 4), read-out: Tmax (SD)",2 h
same,AUC(0-t),"60 mg, CYP2C8 rs10509681 T/C (n 2), read-out: AUClast (SD)",62.5 ng·h/mL
same,Cmax,"60 mg, CYP2C8 rs10509681 T/C (n 2), read-out: Cmax (SD)",5.69 ng/mL
same,Tmax,"60 mg, CYP2C8 rs10509681 T/C (n 2), read-out: Tmax (h, SD)",3 h
same,AUC(0-t),"60 mg, CYP2C8 rs10509681 T/T (n 16), read-out: AUClast (SD)",68.2 ng·h/mL
same,Cmax,"60 mg, CYP2C8 rs10509681 T/T (n 16), read-out: Cmax (SD)",6.11 ng/mL
same,Tmax,"60 mg, CYP2C8 rs10509681 T/T (n 16), read-out: Tmax (h, SD)",9.81 h
same,AUC(0-t),"60 mg, CYP2C8 rs11572080 C/C (n 16), read-out: AUClast (SD)",68.2 ng·h/mL
same,Cmax,"60 mg, CYP2C8 rs11572080 C/C (n 16), read-out: Cmax (SD)",6.11 ng/mL
same,Tmax,"60 mg, CYP2C8 rs11572080 C/C (n 16), read-out: Tmax (h, SD)",9.81 h
same,AUC(0-t),"60 mg, CYP2C8 rs11572080 C/T (n 2), read-out: AUClast (SD)",62.5 ng·h/mL
same,Cmax,"60 mg, CYP2C8 rs11572080 C/T (n 2), read-out: Cmax (SD)",5.69 ng/mL
same,Tmax,"60 mg, CYP2C8 rs11572080 C/T (n 2), read-out: Tmax (h, SD)",3 h
same,AUC(0-t),"60 mg, CYP2C9 *1/*1, NM (n = 11), mean ± SD, read-out: AUClast",37.5 ± 42.4 ng·h/mL
same,Cmax,"60 mg, CYP2C9 *1/*1, NM (n = 11), mean ± SD, read-out: Cmax",3.66 ± 4.07 ng/mL
same,Tmax,"60 mg, CYP2C9 *1/*1, NM (n = 11), mean ± SD, read-out: Tmax",12.9 ± 9.14 h
same,AUC(0-t),"60 mg, CYP2C9 *2/*3, PM (n = 2), mean ± SD, read-out: AUClast",177 ± 224 ng·h/mL
same,Cmax,"60 mg, CYP2C9 *2/*3, PM (n = 2), mean ± SD, read-out: Cmax",11.3 ± 13.6 ng/mL
same,Tmax,"60 mg, CYP2C9 *2/*3, PM (n = 2), mean ± SD, read-out: Tmax",2.5 ± 2.12 h
same,AUC(0-t),"60 mg, CYP2C19 *1/*1, NM (n = 8), mean ± SD, read-out: AUClast",98 ± 124 ng·h/mL
same,Cmax,"60 mg, CYP2C19 *1/*1, NM (n = 8), mean ± SD, read-out: Cmax",8.44 ± 9.71 ng/mL
same,Tmax,"60 mg, CYP2C19 *1/*1, NM (n = 8), mean ± SD, read-out: Tmax",8.75 ± 10.1 h
same,AUC(0-t),"60 mg, CYP2C19 *1/*17, RM (n = 6), mean ± SD, read-out: AUClast",50.5 ± 51.6 ng·h/mL
same,Cmax,"60 mg, CYP2C19 *1/*17, RM (n = 6), mean ± SD, read-out: Cmax",4.5 ± 4.61 ng/mL
same,Tmax,"60 mg, CYP2C19 *1/*17, RM (n = 6), mean ± SD, read-out: Tmax",9.17 ± 7.33 h
same,AUC(0-t),"60 mg, CYP3A *1/*1, EM (n = 16), mean ± SD, read-out: AUClast",52.7 ± 63.3 ng·h/mL
same,Cmax,"60 mg, CYP3A *1/*1, EM (n = 16), mean ± SD, read-out: Cmax",5.32 ± 6.58 ng/mL
same,Tmax,"60 mg, CYP3A *1/*1, EM (n = 16), mean ± SD, read-out: Tmax",9.75 ± 8.93 h
same,AUClast (area under the concentration-time curve up to the last measurable point),40 mg/day oral,39.7 and 128.526 and 20.601 and 13.049 and 18.213 and 10.234 and 34.56 and 101.166 and 120.462 and 21.211 and 2.735 and 84.631 and 10.412 and 4.928 and 48.451 and 17.602
same,Cmax (maximum plasma concentration),40 mg/day oral,3.95 and 22.764 and 1.686 and 1.136 and 1.739 and 0.656 and 5.76 and 15.011 and 19.462 and 3.535 and 0.456 and 5.034 and 0.72 and 0.405 and 3.119 and 1.379
same,Tmax (time to maximum plasma concentration),40 mg/day oral,1 h and 12 h
same,AUClast (area under the concentration-time curve up to the last measurable point),60 mg/day oral,19.08 and 237.522 and 35.852 and 16.597 and 21.462 and 105.854 and 58.513 and 4.589 and 25.375 and 51.929 and 37.407 and 14.483 and 13.976 and 62.698 and 11.57 and 152.359 and 11.552 and 335.306
same,Cmax (maximum plasma concentration),60 mg/day oral,1.663 and 25.28 and 3.324 and 1.155 and 1.59 and 9.707 and 7.329 and 0.325 and 2.291 and 4.963 and 2.974 and 1.614 and 1.37 and 8.694 and 1.712 and 13.569 and 0.613 and 20.897
same,Tmax (time to maximum plasma concentration),60 mg/day oral,1 h and 12 h and 5 h
